Laboratory results reported in patent US4657907A, “Low dosage compositions of finely pulverized 2,4-diamino-6-(2,5-dichlorophenyl)-1,3,5-triazine and pharmaceutically acceptable acid addition salts thereof and administration thereof” (Nippon Shinyaku Co., Ltd., priority 1981, dated 1987).
Where “and” joins values, the source holds several entries; their conditions need not be identical. Equal entries are not always repeated.

Assays:
[1] = tested on: ulcer formation induced by stress; assay: Inhibition of stress ulcer formation (immobilization-water immersion method), oral; assay type: in vivo, rats; conditions: for dose dependency of stress ulcer inhibition: 0.3 to 30 mg/kg
Description: Since 50 microns is a common particle diameter in pharmaceutical preparations, it was most surprising that such significant and important advantages resulted. Inhibition activity against stress ulcer in rats of the compound and pharmaceutically acceptable acid addition salts in the finely pulverized form are set forth in Table 2.

rats = assay: Acute toxicity (LD50), intraperitoneal injection; assay type: in vivo; conditions: dosages up to 3000 mg/kg, average particle diameter about 8 microns
Description: This decrease in toxicity is totally unexpected and represents a significant and important advance in the art.

[2] = Body weight increase inhibition on chronic oral administration; assay type: in vivo, rats; conditions: for body weight increase: 10 mg/kg or more per day, chronic oral, rats
Description: A further advantage resulted from body weight increase inhibition which is one of the main side effects of the compound and salts of the present invention. […] This is a side effect of triazines of this type.
The average particle sizes were 8 microns for the compound according our copending application as compared to the same compound having an average particle diameter of 50 microns.

ulcers = assay: Clinical experiments: rate of recovery or cure of ulcers in patients; assay type: in vivo, humans
Description: Clinical experiments were conducted wherein patients were given 1, 2 and 4 mg/day of 2,4-diamino-6-(2,5-dichlorophenyl)-1,3,5-triazine in separate groups. There were 133 patients participating in the group and 123 were separately analyzed (groups of 20, 46 and 57). The rate of recovery or cure of ulcers during those clinical trials over the period indicated was as follows: […]

[3] = Clinical experiments: side effects in patients; assay type: in vivo, humans; conditions: 4 mg group
Description: Clinical experiments were conducted wherein patients were given 1, 2 and 4 mg/day of 2,4-diamino-6-(2,5-dichlorophenyl)-1,3,5-triazine in separate groups. There were 133 patients participating in the group and 123 were separately analyzed (groups of 20, 46 and 57). The rate of recovery or cure of ulcers during those clinical trials over the period indicated was as follows:
Only one side effect was noted. There was an increase in transaminase (GOT and GPT) observed in one case (1.8% of the total) in the 4 mg group.

[4] = Average particle diameter after jet milling, Coulter Counter TA-II; assay type: physicochemical; conditions: jet mill PJM-100 NP; dispersed in physiological saline with Tween-80
Description: 2,4-diamino-6-(2,5-dichlorophenyl)-1,3,5-triazine and pharmaceutically acceptable acid addition salts thereof may be finely pulverized to achieve the average particle diameter of 20 microns or less by using jet Mill PJM-100NP (Nippon Newmatic MEG Co.). The pulverization is carried out by feeding 2 kg or less of the substance per hour. An average particle diameter of about 8 microns may be prepared in that manner. If necessary, auxiliary pulverizing agents such as starch, anhydrous silicic acid, etc. may be used. In measuring average particle size, the powder is dispersed in physiological saline solution containing one drop of Tween-80 with the aid of an ultrasonic homogenizer for 30 seconds and measured by Coleter Counter TA-II (Coulter Electronics Co., U.S.A.) equipped with aperture tube of 100 microns.
2,4-Diamino-6-(2,5-dichlorophenyl)-1,3,5-triazine is powdered by supplying it at a rate of not more than 2 kg/hour to a Jet Mill PJM-100 NP (Nippon Newmatic Mfg. Co.). The pulverized pharmaceutical is dispersed in a physiological saline solution containing one drop of Tween-80 by the use of ultrasonic homogenizer for 30 seconds and their particle diameter in average is measured by Coulter Counter TA-II (Coleter Eelectronics Co., USA) and the result is about 8 microns.

[5] = tested on: ulcer formation induced by stress; assay: Inhibition of stress ulcer formation (immobilization-water immersion method), oral; assay type: in vivo, rats; conditions: average particle diameter about 50 microns; for Inhibition Rate (stress ulcer): three repeat values
[6] = 0.3 mg/kg, finely pulverized form
[7] = 1.0 mg/kg, finely pulverized form
[8] = 3.0 mg/kg, finely pulverized form
[9] = 10 mg/kg, finely pulverized form

Nc1nc(N)nc(-c2cc(Cl)ccc2Cl)n1 [Substance (I), 2,4-diamino-6-(2,5-dichlorophenyl)-1,3,5-triazine]
Inhibition Rate (stress ulcer) [1, 6]: 33%
Inhibition Rate (stress ulcer) [1, 7]: 45%
Inhibition Rate (stress ulcer) [1, 8]: 63%
Inhibition Rate (stress ulcer) [1, 9]: 70%
Inhibition Rate (stress ulcer) ([1]; 30 mg/kg, finely pulverized form): 85%
dose dependency of stress ulcer inhibition ([1]; finely pulverized form): linear dose dependency
activity on ulcer formation induced by stress ([1]; oral, 1 mg/kg, finely pulverized (compound of earlier invention)): effective
lethality (rats): no rats were killed
body weight increase [2]: body weight increase was inhibited
recovery of body weight ([2]; about 8 microns compared to about 50 microns): far faster
body weight increase inhibition (side effect) ([2]; average particle diameter about 8 microns): only transient and moderate
rate of recovery or cure of ulcers (ulcers; 1 mg/day, 4 weeks): 20.0%
rate of recovery or cure of ulcers (ulcers; 1 mg/day, 8 weeks): 50.0%
rate of recovery or cure of ulcers (ulcers; 2 mg/day, 4 weeks): 17.4%
rate of recovery or cure of ulcers (ulcers; 2 mg/day, 8 weeks): 47.8%
rate of recovery or cure of ulcers (ulcers; 4 mg/day, 4 weeks): 41.6%
rate of recovery or cure of ulcers (ulcers; 4 mg/day, 8 weeks): 56.1%
recovery rate of ulcer improvement, degree of ulcer, effect against subjective and non-subjective symptoms (ulcers; hospitalized patients, 4 mg group compared with other groups): marked superiority
increase in transaminase (GOT and GPT), cases ([3]; only side effect noted): one case
increase in transaminase (GOT and GPT), incidence ([3]; printed as % of the total): 1.8%
average particle diameter [4]: about 8 microns
Inhibition Rate (stress ulcer) ([5]; 0.37 mg/kg per os): 37% and 46% and 29%
Inhibition Rate (stress ulcer) ([5]; 3.72 mg/kg per os): 62% and 47% and 33%
activity on ulcer formation induced by stress ([5]; oral, 5 mg/kg): ineffective

Nc1nc(N)nc(-c2cc(Cl)ccc2Cl)n1 [Substance (II)]
Inhibition Rate (stress ulcer) [1, 6]: 35%
Inhibition Rate (stress ulcer) [1, 7]: 51%
Inhibition Rate (stress ulcer) [1, 8]: 70%
Inhibition Rate (stress ulcer) [1, 9]: 85%
dose dependency of stress ulcer inhibition ([1]; finely pulverized form): linear dose dependency
ED50 (stress ulcer inhibition) ([1]; per os, finely pulverized form, from Table 2 data): 0.90 mg/kg
body weight increase [2]: body weight increase was inhibited
improvement in body weight side effect ([2]; maleate salt according to the invention compared with maleate salt of about 50 microns): particularly dramatic
